Data published in the NIST ThermoML archive (doi:10.1021/je5009119).
Numbers after ± are expanded uncertainties.

What was measured:
[1] = 101.33 kPa, Liquid; for viscosity: Capillary tube (Ostwald / Ubbelohde) method; for mass density: Pycnometric method
[2] = mn = molality of the nth substance listed, in mol/kg; conditions: 101 kPa, Liquid; for viscosity: Capillary tube (Ostwald / Ubbelohde) method; for mass density: Pycnometric method

SMILES: OCCO [1,2-ethanediol]
- viscosity ([1]; 298.15 K): 16.2 ± 0.2 mPa·s
- viscosity ([1]; 303.15 K): 14.1 ± 0.2 mPa·s
- mass density ([1]; 303.15 K): 1106.6 ± 1.3 kg/m3
- viscosity ([1]; 308.15 K): 11.6 ± 0.1 mPa·s
- viscosity ([1]; 313.15 K): 9.75 ± 0.11 mPa·s
- mass density ([1]; 313.15 K): 1099.3 ± 1.3 kg/m3
- viscosity ([1]; 318.15 K): 7.91 ± 0.1 mPa·s

SMILES: OCCO [1,2-ethanediol] + NC(N)=O
- viscosity ([2]; 298.15 K, m2 = 0): 16.2 ± 0.2 mPa·s
- viscosity ([2]; 303.15 K, m2 = 0): 14.1 ± 0.2 mPa·s
- mass density ([2]; 303.15 K, m2 = 0): 1106.6 ± 1.3 kg/m3
- viscosity ([2]; 308.15 K, m2 = 0): 11.6 ± 0.1 mPa·s
- viscosity ([2]; 313.15 K, m2 = 0): 9.75 ± 0.11 mPa·s
- mass density ([2]; 313.15 K, m2 = 0): 1099.3 ± 1.3 kg/m3
- viscosity ([2]; 318.15 K, m2 = 0): 7.91 ± 0.1 mPa·s

SMILES: NC(N)=O [urea] + OCCO
- viscosity ([2]; 298.15 K, m1 = 0.877): 17 ± 0.2 mPa·s
- viscosity ([2]; 298.15 K, m1 = 1.852): 18.5 ± 0.2 mPa·s
- viscosity ([2]; 298.15 K, m1 = 2.939): 20.4 ± 0.3 mPa·s
- viscosity ([2]; 298.15 K, m1 = 4.162): 22.1 ± 0.3 mPa·s
- viscosity ([2]; 298.15 K, m1 = 5.549): 24 ± 0.3 mPa·s
- viscosity ([2]; 298.15 K, m1 = 7.137): 25.7 ± 0.4 mPa·s
- mass density ([2]; 298.15 K, m1 = 0.877): 1118.4 ± 1.5 kg/m3
- mass density ([2]; 298.15 K, m1 = 1.852): 1127.9 ± 1.7 kg/m3
- mass density ([2]; 298.15 K, m1 = 2.939): 1137.2 ± 1.9 kg/m3
- mass density ([2]; 298.15 K, m1 = 4.162): 1146.3 ± 2.1 kg/m3
- mass density ([2]; 298.15 K, m1 = 5.549): 1155.3 ± 2.4 kg/m3
- mass density ([2]; 298.15 K, m1 = 7.137): 1164.4 ± 2.6 kg/m3
- viscosity ([2]; 303.15 K, m1 = 0.877): 14.9 ± 0.2 mPa·s
- viscosity ([2]; 303.15 K, m1 = 1.852): 16 ± 0.2 mPa·s
- viscosity ([2]; 303.15 K, m1 = 2.939): 17.5 ± 0.2 mPa·s
- viscosity ([2]; 303.15 K, m1 = 4.162): 18.8 ± 0.3 mPa·s
- viscosity ([2]; 303.15 K, m1 = 5.549): 20.2 ± 0.3 mPa·s
- viscosity ([2]; 303.15 K, m1 = 7.137): 21.5 ± 0.3 mPa·s
- mass density ([2]; 303.15 K, m1 = 0.877): 1114.8 ± 1.5 kg/m3
- mass density ([2]; 303.15 K, m1 = 1.852): 1124.4 ± 1.7 kg/m3
- mass density ([2]; 303.15 K, m1 = 2.939): 1133.7 ± 1.9 kg/m3
- mass density ([2]; 303.15 K, m1 = 4.162): 1142.9 ± 2.1 kg/m3
- mass density ([2]; 303.15 K, m1 = 5.549): 1151.9 ± 2.4 kg/m3
- mass density ([2]; 303.15 K, m1 = 7.137): 1161.1 ± 2.6 kg/m3
- viscosity ([2]; 308.15 K, m1 = 0.877): 12.1 ± 0.2 mPa·s
- viscosity ([2]; 308.15 K, m1 = 1.852): 13 ± 0.2 mPa·s
- viscosity ([2]; 308.15 K, m1 = 2.939): 14.1 ± 0.2 mPa·s
- viscosity ([2]; 308.15 K, m1 = 4.162): 15.1 ± 0.2 mPa·s
- viscosity ([2]; 308.15 K, m1 = 5.549): 16.1 ± 0.2 mPa·s
- viscosity ([2]; 308.15 K, m1 = 7.137): 17.1 ± 0.3 mPa·s
- mass density ([2]; 308.15 K, m1 = 0.877): 1111.1 ± 1.5 kg/m3
- mass density ([2]; 308.15 K, m1 = 1.852): 1120.7 ± 1.7 kg/m3
- mass density ([2]; 308.15 K, m1 = 2.939): 1130 ± 1.9 kg/m3
- mass density ([2]; 308.15 K, m1 = 4.162): 1139.1 ± 2.1 kg/m3
- mass density ([2]; 308.15 K, m1 = 5.549): 1148.1 ± 2.4 kg/m3
- mass density ([2]; 308.15 K, m1 = 7.137): 1157.4 ± 2.6 kg/m3
- viscosity ([2]; 313.15 K, m1 = 0.877): 10.1 ± 0.1 mPa·s
- viscosity ([2]; 313.15 K, m1 = 1.852): 10.8 ± 0.1 mPa·s
- viscosity ([2]; 313.15 K, m1 = 2.939): 11.6 ± 0.2 mPa·s
- viscosity ([2]; 313.15 K, m1 = 4.162): 12.4 ± 0.2 mPa·s
- viscosity ([2]; 313.15 K, m1 = 5.549): 13.2 ± 0.2 mPa·s
- viscosity ([2]; 313.15 K, m1 = 7.137): 13.9 ± 0.2 mPa·s
- mass density ([2]; 313.15 K, m1 = 0.877): 1107.8 ± 1.5 kg/m3
- mass density ([2]; 313.15 K, m1 = 1.852): 1117.4 ± 1.7 kg/m3
- mass density ([2]; 313.15 K, m1 = 2.939): 1126.8 ± 1.9 kg/m3
- mass density ([2]; 313.15 K, m1 = 4.162): 1135.9 ± 2.1 kg/m3
- mass density ([2]; 313.15 K, m1 = 5.549): 1144.9 ± 2.4 kg/m3
- mass density ([2]; 313.15 K, m1 = 7.137): 1154.1 ± 2.6 kg/m3
- viscosity ([2]; 318.15 K, m1 = 0.877): 8.13 ± 0.1 mPa·s
- viscosity ([2]; 318.15 K, m1 = 1.852): 8.68 ± 0.11 mPa·s
- viscosity ([2]; 318.15 K, m1 = 2.939): 9.31 ± 0.13 mPa·s
- viscosity ([2]; 318.15 K, m1 = 4.162): 9.86 ± 0.14 mPa·s
- viscosity ([2]; 318.15 K, m1 = 5.549): 10.4 ± 0.2 mPa·s
- viscosity ([2]; 318.15 K, m1 = 7.137): 11 ± 0.2 mPa·s
- mass density ([2]; 318.15 K, m1 = 0.877): 1103.9 ± 1.5 kg/m3
- mass density ([2]; 318.15 K, m1 = 1.852): 1113.6 ± 1.7 kg/m3
- mass density ([2]; 318.15 K, m1 = 2.939): 1122.9 ± 1.9 kg/m3
- mass density ([2]; 318.15 K, m1 = 4.162): 1132.1 ± 2.1 kg/m3
- mass density ([2]; 318.15 K, m1 = 5.549): 1141 ± 2.4 kg/m3
- mass density ([2]; 318.15 K, m1 = 7.137): 1150.3 ± 2.6 kg/m3
